Experimental findings from patent US20060094787A1, “Pharmaceutical composition comprising 5-methyl-2-2'(chloro-6'-fluoroanilino) phenylacetic acid” (priority 2003, published 2006) are described below.

A short description of the data set: Solubility of drug substance in water / suspension. In kind it is physicochemical.

With `Cc1ccc(Nc2c(F)cccc2Cl)c(CC(=O)O)c1` [5-methyl-2-(2′-chloro-6′-fluoroanilino)phenylacetic acid], the “water solubility of drug substance” value is “relatively water insoluble”.
